Experimental data: patent US20100061994A1, “MEDICAL USES OF 39-DESMETHOXYRAPAMYCIN AND ANALOGUES THEREOF” (priority 2005, published 2010)
Where “and” joins values, the source holds several entries; their conditions need not be identical. Equal values may be shown once. Read-outs that look alike come from different tables or passages of the source.

How the values were obtained:
EAE = test: Experimental allergic encephalomyelitis (EAE) model of multiple sclerosis; format: in vivo, male Lewis rats; settings: rat, in vivo
[1] = Human Liver Microsomal (HLM) stability assay; format: in vitro ADME; settings: 0.001 mM, 0.25 mg/mL protein, NADPH, 37° C.
Procedure: Liver homogenates provide a measure of a compounds inherent vulnerability to Phase I (oxidative) enzymes, including CYP450s (e.g. CYP2C8, CYP2D6, CYP1A, CYP3A4, CYP2E1), esterases, amidases and flavin monooxygenases (FMOs).
The half life (T½) of test compounds was determined, on exposure to Human Liver Microsomes, by monitoring their disappearance over time by LC-MS. Compounds at 0.001 mM were incubated at for 40 min at 37° C., 0.1 M Tris-HCl, pH 7.4 with human microsomal sub-cellular fraction of liver at 0.25 mg/mL protein and saturating levels of NADPH as co-factor. At timed intervals, acetonitrile was added to test samples to precipitate protein and stop metabolism. Samples were centrifuged and analysed for parent compound using analytical Method A (see Materials & Methods).

FKBP12 = FKBP12 (Homo sapiens, UniProt P62942); test: In vitro FKBP12 binding assay (GdnHCl unfolding)
Source text: FKBP12 reversibly unfolds in the chemical denaturant guandinium hydrochloride (GdnHCl) and the unfolding can be monitored by the change in the intrinsic fluorescence of the protein (Main et al, 1998). Ligands which specifically bind and stabilise the native state of FKBP12 shift the denaturation curve such that the protein unfolds at higher concentrations of chemical denaturant (Main et al, 1999). From the difference in stability, the ligand-binding constant can be determined using equation 1.
where ΔGapp is the apparent difference in free energy of unfolding between free and ligand-bound forms, ΔGD−N^H^2^O is the free energy of unfolding in water of free protein, [L] the concentration of ligand and kd the dissociation constant for the protein-ligand complex (Meiering et al, 1992). The free energy of unfolding can be related to the midpoint of the unfolding transition using the following equation: […]
where mD−N is a constant for a given protein and given denaturant and which is proportional to the change in degree of exposure of residues on unfolding (Tanford 1968 and Tanford 1970), and [D]50% is the concentration of denaturant corresponding to the midpoint of unfolding.
where <mD−N> is the average m-value of the unfolding transition and Δ[D]50% the difference in midpoints for the rapamycin-FKBP12 unfolding transition and unknown-ligand-FKBP12 complex unfolding transition. Under conditions where [L]>Kd, then, ΔΔGD−N, can be related to the relative Kds of the two compounds through equation 4: […]

Caco-2 permeation assay = settings: human, Caco-2, pH 7.4
Procedure: (§1) Confluent Caco-2 cells (Li, A. P., 1992; Grass, G. M., et al., 1992, Volpe, D. A., et al., 2001) in a 24 well Corning Costar Transwell format were provided by In Vitro Technologies Inc. (IVT Inc., Baltimore, Md., USA). The apical chamber contained 0.15 mL Hank's balanced buffer solution (HBBS) pH 7.4, 1% DMSO, 0.1 mM Lucifer Yellow. The basal chamber contained 0.6 mL HBBS pH 7.4, 1% DMSO. Controls and tests were incubated at 37° C. in a humidified incubator, shaken at 130 rpm for 1 h. Lucifer Yellow permeates via the paracellular (between the tight junctions) route only, a high Apparent Permeability (Papp) for Lucifer Yellow indicates cellular damage during assay and all such wells were rejected. […] Compounds were tested in a uni- and bi-directional format by applying compound to the apical or basal chamber (at 0.01 mM). Compounds in the apical or basal chambers were analysed by HPLC-MS (Method A, see Materials & Methods). Results were expressed as Apparent Permeability, Papp, (nm/s) and as the Flux Ratio (A to B versus B to A).
(§2) [formula] • Volume Acceptor: 0.6 ml (A>B) and 0.15 ml (B>A) • Area of monolayer: 0.33 cm2 • Δtime: 60 min
(§3) A positive value for the Flux Ratio indicates active efflux from the apical surface of the cells.

[2] = Pharmacokinetic analysis Protocol 1 (blood and brain); settings: female, CD1, mouse, 3 mg/kg
Procedure: The test compounds were prepared in a vehicle consisting of 4% Ethanol, 5% Tween-20, 5% polyethyleneglycol 400 in 0.15M NaCl. A single dbse of 10 mg/kg p.o. or 3 mg/kg i.v. was administered to groups of female CD1 mice (3 mice for each compound per time point). At 0 min, 4 min, 15 min, 1 h, 4 h, and 24 h groups were sacrificed and the blood and the brain were collected from each mouse for further analysis.
The brain samples were snap frozen in liquid nitrogen and stored at −20° C. A minimum of 0.2 mL of whole blood from each animal was collected in tubes containing ethylene diamine tetra-acetic acid (EDTA) as anticoagulant, thoroughly mixed, and stored at −20° C.
Analysis was performed by ASI Limited, (St George's Hospital Medical School, London). The concentration of the test compound in the blood and brain samples supplied was determined by HPLC with MS detection. Control, test compound free, blood samples were obtained from Harlan Sera-Lab Limited, (Loughborough, England). Time zero brain samples were supplied as control, test compound free, brain samples.
One hemisphere of each brain was homogenized with 5 mL water.
The control or test sample of mouse brain or blood (0.05 mL), internal standard solution (0.1 mL), 5% Zinc sulphate solution (0.5 mL), and acetone (0.5 mL) were pipetted into a 2 mL polypropylene tube (Sarstedt Limited, Beaumont Leys, Leicester, UK) and the contents were then mixed for a minimum of 5 minutes (IKA-Vibrax-VXR mixer, Merck (BDH) Limited, Poole Dorset, UK). The tubes were then centrifuged in a microfuge for a minimum of 2 minutes. The solvent layer was decanted into a 4.5 mL polypropylene tube containing sodium hydroxide (0.1M, 0.1 mL) and methyl-tert-butyl ether (MTBE, 2 mL). The tube was then mixed for a minimum of 5 minutes (IKA-Vibrax-VXR mixer) and then centrifuged at 3500 rpm for 5 minutes. The solvent layer was transferred to a 4.5 mL conical polypropylene tube, placed in a SpeedVac® and evaporated to dryness.
The dried extracts were reconstituted with 0.15 mL 80% methanol and mixed for a minimum of 5 minutes (IKA-Vibrax-VXR mixer) and centrifuged at 3500 rpm for 5 minutes. The extract was transferred to auto sampler tubes (NLG Analytical, Adelphi Mill, Bollington, Cheshire, UK) and placed into the auto-sampler tray which was set at ambient temperature. The auto-sampler was programmed to inject a 0.03 mL aliquot of each extract onto the analytical column.
The AUC for each compound in blood or in brain tissue was calculated using Kinetica 4.4 (InnaPhase Corporation), using a non-compartmental model and the trapezoidal method for AUC calculation.
The partition coefficient (Ri) for each compound after p.o. and i.v. administration was calculated as shown below:
The partition coefficient (R) for each compound after i.v. administration was calculated as shown below:

Caco-2 cells = test: Caco-2 permeation assay; settings: 0.01 mM
Procedure: as §1, §2, §3

[3] = relative to literature Kd of rapamycin 0.2 nM

Sequence of FKBP12 (P62942 whole entry, species assumed): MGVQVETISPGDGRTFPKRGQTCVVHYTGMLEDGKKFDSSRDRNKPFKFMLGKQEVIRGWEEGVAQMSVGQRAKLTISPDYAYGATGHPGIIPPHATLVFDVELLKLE

With `O=P1(N(CCCl)CCCl)NCCCO1` (centres unmarked) [Cyclophosphamide, reference compound] the “Cumulative score Mean ± St Dev.” value (EAE) was 33 ± 14.1 and 37 ± 26.6, the “Duration (days) Mean ± St Dev.” value (EAE) was 13 ± 3.4 days and 15 ± 3.2 days and the “Onset Mean ± St Dev.” value (EAE) was 13 ± 2.6 and 11 ± 1.1.
Molecule `CO[C@H]1CC2CC[C@@H](C)[C@@](O)(O2)C(=O)C(=O)N2CCCC[C@H]2C(=O)O[C@H]([C@@H](C)CC2CCC(O)CC2)CC(=O)[C@@H](C)/C=C(\C)[C@H](O)[C@H](O)C(=O)[C@@H](C)C[C@H](C)/C=C/C=C/C=C/1C` (some centres unmarked) [27-O-desmethyl-39-desmethoxyrapamycin] has a half-life at 0.001 mM ([1]; human, liver microsomes, pH 7.4, read-out: HLM stability: T½ min) of 27 min, a Kd (FKBP12; [3]) of 0.8 nM and a Papp at 1 h, 0.01 mM (Caco-2 permeation assay) of 0.4 ×10⁻⁶ cm/s. The efflux ratio at 1 h, 0.01 mM (Caco-2 permeation assay) was 91, the Kp ([2]; brain / whole blood, intravenous) was 4.56 and the AUC ([2]; whole blood, iv) was 1850 ng·h/mL.
In the case of “16-O-desmethyl-27-O-desmethyl-39-desmethoxyrapamycin”, the “HLM stability: T½ min” value [1] is reported as 47 min, the Kd (FKBP12; [3]) is reported as 101 nM and the “Caco-2: Efflux Ratio” value (Caco-2 cells; bi-directional format) is reported as 37. The “Caco-2: Papp” value (Caco-2 cells; pH 7.4, 1 h) was 1.3 ×10⁻⁶ cm/s.
Molecule `COC1CC2CCC(C)C(O)(O2)C(=O)C(=O)N2CCCCC2C(=O)OC(C(C)CC2CCC(O)CC2)CC(=O)C(C)C=C(C)C(O)CC(=O)C(C)CC(C)C=CC=CC=C1C` (centres unmarked) [27-desmethoxy-39-desmethoxy rapamycin] has a Kd (FKBP12) of 160 nM.
